Structures are written as SMILES.

EGFR del19/T790M/C797S mutant kinase, sequence (P00533 with tags, fused parts or gaps C797S/DEL746-750/T790M limits assumed): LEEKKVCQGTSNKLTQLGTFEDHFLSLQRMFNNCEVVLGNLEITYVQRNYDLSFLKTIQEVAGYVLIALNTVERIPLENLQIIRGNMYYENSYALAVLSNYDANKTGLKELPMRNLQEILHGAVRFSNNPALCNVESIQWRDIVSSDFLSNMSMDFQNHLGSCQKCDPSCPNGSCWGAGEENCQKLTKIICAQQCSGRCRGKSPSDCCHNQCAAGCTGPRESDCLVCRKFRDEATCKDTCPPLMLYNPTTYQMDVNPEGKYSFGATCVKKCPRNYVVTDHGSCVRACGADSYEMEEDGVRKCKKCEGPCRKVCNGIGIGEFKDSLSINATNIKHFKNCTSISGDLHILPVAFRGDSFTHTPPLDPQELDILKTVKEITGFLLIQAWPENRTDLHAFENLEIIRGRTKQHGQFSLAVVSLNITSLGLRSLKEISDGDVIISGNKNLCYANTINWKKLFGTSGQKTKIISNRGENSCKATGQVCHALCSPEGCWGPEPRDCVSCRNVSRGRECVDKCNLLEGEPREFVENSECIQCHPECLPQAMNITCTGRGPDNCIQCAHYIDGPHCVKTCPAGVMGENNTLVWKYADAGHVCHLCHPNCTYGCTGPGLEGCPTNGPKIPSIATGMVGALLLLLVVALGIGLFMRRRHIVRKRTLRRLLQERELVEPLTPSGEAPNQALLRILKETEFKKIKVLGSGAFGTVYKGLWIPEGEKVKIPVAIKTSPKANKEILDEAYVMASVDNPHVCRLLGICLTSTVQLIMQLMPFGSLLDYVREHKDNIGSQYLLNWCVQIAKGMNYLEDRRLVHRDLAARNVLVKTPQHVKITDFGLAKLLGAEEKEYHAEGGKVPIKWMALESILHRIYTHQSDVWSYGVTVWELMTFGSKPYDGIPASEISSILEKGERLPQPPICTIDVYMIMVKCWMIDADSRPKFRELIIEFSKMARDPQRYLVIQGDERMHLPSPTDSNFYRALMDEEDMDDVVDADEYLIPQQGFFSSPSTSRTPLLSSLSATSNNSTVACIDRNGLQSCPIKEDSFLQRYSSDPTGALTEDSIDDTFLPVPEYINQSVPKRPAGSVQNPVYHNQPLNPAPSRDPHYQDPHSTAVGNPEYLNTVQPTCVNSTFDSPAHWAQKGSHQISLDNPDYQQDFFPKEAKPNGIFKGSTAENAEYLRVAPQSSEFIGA

The test system of one assay is Ba/F3 EGFR Del19/C797S cells. Put plainly: Cell proliferation inhibition assay (Cell Titer-Glo), Ba/F3 EGFR Del19/C797S. Type of assay: cell-based. The conditions noted are these: 72 hours, read-out: Ba/F3 EGFR Del19_C797S IC50. The source says: (§1) Test Example 2: Cell Proliferation Inhibition Assay
(§2) Experimental objective: The objective of this test example is to test the inhibitory activity of compounds on the proliferation of different EGFR C797S drug-resistant mutant cell lines Ba/F3 EGFR Del19/T790M/C797S, Ba/F3 EGFR L858R/T790M/C797S, and Ba/F3 EGFR Del19/C797S.
(§3) • Ba/F3 EGFR Del19/T790M/C797S cells were purchased from KYinno Biotechnology Co., Ltd.; • Ba/F3 EGFR Del19/C797S cells were purchased from CoBioer Biosciences Co., Ltd.; • Ba/F3 EGFR L858R/T790M/C797S cells were purchased from CoBioer Biosciences Co., Ltd.; • Cell Titer-Glo was purchased from Promega, with a catalog number of G7573; • RPMI 1640 was purchased from Gibco, with a catalog number of 22400089; • FBS was purchased from Gibco, with a catalog number of 10091148; • cell culture plates were purchased from Corning, with a catalog number of 3610.
(§4) The inhibitory activity of the compound on the proliferation of different EGFR C797S drug-resistant mutant cell lines was detected using the Cell Titer-Glo method. The different cell lines were cultured in RPMI 1640 complete culture medium containing 10% FBS under conditions of 37° C. and 5% CO2, the cells were collected by centrifugation when growing to a certain density, and adjusted to appropriate cell density after counting, the cells were spread on a white 96-well plate at 90 μL/well, and cultured in a 37° C., 5% CO2 incubator overnight, prepared compound solutions of different concentrations were added at 10 μL/well, corresponding solvent controls were set, and all wells were cultured in a 37° C., 5% CO2 incubator for 72 hours, 50 μL of CellTiter-Glo solution was added to each well, shook and mixed evenly, and incubated in the dark for 10 minutes, and a BioTek Synergy H1 microplate reader was used for reading.
(§5) The luminescence signal value was used to calculate the inhibition rate. Graphpad Prism software was used to fit the concentration and inhibition rate to a nonlinear regression curve, so as to obtain the IC50 value, as shown in Tables 3 and 4 below for details.
Turning to `CC(C)c1ccc(N2C[C@H](CS(C)(=O)=O)[C@H]2C)c2cnc(Nc3ccnc(-c4cn(C5CCOCC5)nc4Cl)n3)cc12` [Example 78, N-(2-(3-chloro-1-(tetrahydro-2H-pyran-4-yl)-1H-pyrazol-4-yl)pyrimidin-4-yl)-5-isopropyl-8-((2R,3S)-2-methyl-3-((methanesulfonyl)methyl)azetidin-1-yl)isoquinolin-3-amine], the IC50 was 0.027 µM.
Consider `CC(C)c1ccc(N2C[C@H](CS(C)(=O)=O)[C@H]2C)c2cnc(Nc3ccnc(-c4cnn(CCO)c4)n3)cc12` [Example 48, 2-(4-(4-((5-isopropyl-8-((2R,3S)-2-methyl-3-((methanesulfonyl)methyl)azetidin-1-yl)isoquinolin-3-yl)amino)pyrimidin-2-yl)-1H-pyrazol-1-yl)ethan-1-ol], for which the IC50 stood at 0.085 µM.
On to `CC(C)c1ccc(N2C[C@H](CS(C)(=O)=O)[C@H]2C)c2cnc(Nc3ccnc(-c4cnn(C5(CC#N)CC5)c4)n3)cc12` [Example 50, 2-(1-(4-(4-((5-isopropyl-8-((2R,3S)-2-methyl-3-((methanesulfonyl)methyl)azetidin-1-yl)isoquinolin-3-yl)amino)pyrimidin-2-yl)-1H-pyrazol-1-yl)cyclopropyl)acetonitrile], for which the IC50 amounted to 0.051 µM.
Consider `CC(C)c1ccc(N2C[C@H](CS(C)(=O)=O)[C@H]2C)c2cnc(Nc3ccnc(-c4cncs4)n3)cc12` [Example 54, 5-isopropyl-8-((2R,3S)-2-methyl-3-((methanesulfonyl)methyl)azetidin-1-yl)-N-(2-(thiazol-5-yl)pyrimidin-4-yl)isoquinolin-3-amine], for which the IC50 was found to be 0.032 µM.
Turning to `CC(C)c1ccc(N2C[C@H](CS(C)(=O)=O)[C@H]2C)c2cnc(Nc3ccnc(-c4cn(CCC#N)nc4Cl)n3)cc12` [Example 67, 3-(3-chloro-4-(4-((5-isopropyl-8-((2R,3S)-2-methyl-3-((methanesulfonyl)methyl)azetidin-1-yl)isoquinolin-3-yl)amino)pyrimidin-2-yl)-1H-pyrazol-1-yl)propanenitrile], the IC50 is 0.02 µM.
Turning to `CC(C)c1c(F)cc(N2C[C@H](CS(C)(=O)=O)[C@H]2C)c2cnc(Nc3ccnc(-c4cnn(C)c4)n3)cc12` [Example 39, 6-fluoro-5-isopropyl-N-(2-(1-methyl-1H-pyrazol-4-yl)pyrimidin-4-yl)-8-((2R,3S)-2-methyl-3-((methanesulfonyl)methyl)azetidin-1-yl)isoquinolin-3-amine], the IC50 turned out to be 0.073 µM.
With `C=CCn1cc(-c2nccc(Nc3cc4c(C(C)C)ccc(N5C[C@H](CS(C)(=O)=O)[C@H]5C)c4cn3)n2)cn1` [Example 51, N-(2-(1-allyl-1H-pyrazol-4-yl)pyrimidin-4-yl)-5-isopropyl-8-((2R,3S)-2-methyl-3-((methanesulfonyl)methyl)azetidin-1-yl)isoquinolin-3-amine], the IC50 came out at 0.041 µM.
Regarding `CC(C)c1ccc(N2CC(CC#N)C2)c2cnc(Nc3ccnc(-c4cnn(S(=O)(=O)C5CC5)c4)n3)cc12` [Example 40, 2-(1-(3-((2-(1-(cyclopropylsulfonyl)-1H-pyrazol-4-yl)pyrimidin-4-yl)amino)-5-isopropylisoquinolin-8-yl)azetidin-3-yl)acetonitrile], the IC50 is 0.07 µM.
For `CC(C)c1ccc(N2C[C@H](CS(C)(=O)=O)[C@H]2C)c2cnc(Nc3ccnc(-c4cnn(C5CC5(F)F)c4)n3)cc12` (stereo partly drawn) [Example 12, N-(2-(1-(2,2-difluorocyclopropyl)-1H-pyrazol-4-yl)pyrimidin-4-yl)-5-isopropyl-8-((2R,3S)-2-methyl-3-((methanesulfonyl)methyl)azetidin-1-yl)isoquinolin-3-amine], the IC50 was 0.056 µM.
Consider `Cc1nn(C)cc1-c1nccc(Nc2cc3c(C(C)C)ccc(N4CC(N5CCCS5(=O)=O)C4)c3cn2)n1` [Example 69, 2-(1-(3-((2-(1,3-dimethyl-1H-pyrazol-4-yl)pyrimidin-4-yl)amino)-5-isopropylisoquinolin-8-yl)azetidin-3-yl)isothiazolidine 1,1-dioxide], for which the IC50 turned out to be 0.051 µM.
With `Cc1nn(C)cc1-c1nccc(Nc2cc3c(C(C)C)ccc(N4CC(NS(C)(=O)=O)C4)c3cn2)n1` [Example 60, N-(1-(3-((2-(1,3-dimethyl-1H-pyrazol-4-yl)pyrimidin-4-yl)amino)-5-isopropylisoquinolin-8-yl)azetidin-3-yl)methanesulfonamide], the IC50 was determined as 0.026 µM.
For `CC(C)c1ccc(N2C[C@H](CS(C)(=O)=O)[C@H]2C)c2cnc(Nc3ccnc(-c4cnn(C5(C#N)CC5)c4)n3)cc12` [Example 13, 1-(4-(4-((5-isopropyl-8-((2R,3S)-2-methyl-3-((methanesulfonyl)methyl)azetidin-1-yl)isoquinolin-3-yl)amino)pyrimidin-2-yl)-1H-pyrazol-1-yl)cyclopropane-1-carbonitrile], the IC50 was 0.082 µM.
For the compound `Cc1nn(C)cc1-c1nccc(Nc2cc3c(C(C)C)ccc(N4CC(CS(C)(=O)=NC#N)C4)c3cn2)n1` (stereo not shown) [Example 83, N-(((1-(3-((2-(1,3-dimethyl-1H-pyrazol-4-yl)pyrimidin-4-yl)amino)-5-isopropylisoquinolin-8-yl)azetidin-3-yl)methyl)(methyl)(carbonyl)-l6-sulfanylidene)cyanamide], the IC50 was determined as 0.074 µM.
For the compound `CC#CCn1cc(-c2nccc(Nc3cc4c(C(C)C)ccc(N5C[C@H](CS(C)(=O)=O)[C@H]5C)c4cn3)n2)cn1` [Example 52, N-(2-(1-(but-2-yn-1-yl)-1H-pyrazol-4-yl)pyrimidin-4-yl)-5-isopropyl-8-((2R,3S)-2-methyl-3-((methanesulfonyl)methyl)azetidin-1-yl)isoquinolin-3-amine], the IC50 stood at 0.049 µM.
For `CC(C)c1ccc(N2C[C@H](CS(C)(=O)=O)[C@H]2C)c2cnc(Nc3ccnc(-c4cnn(C5(CF)CC5)c4)n3)cc12` [Example 29, N-(2-(1-(1-(fluoromethyl)cyclopropyl)-1H-pyrazol-4-yl)pyrimidin-4-yl)-5-isopropyl-8-((2R,3S)-2-methyl-3-((methanesulfonyl)methyl)azetidin-1-yl)isoquinolin-3-amine], the IC50 came to 0.064 µM.

In another assay the target is EGFR del19/T790M/C797S mutant kinase (Homo sapiens, UniProt P00533, C797S/DEL746-750/T790M). Kind of assay: HTRF kinase assay, EGFR del19/T790M/C797S mutant kinase. Type of assay: biochemical. The conditions noted are these: 120 minutes at room temperature. The source says:
Test Example 1. Determination of the Inhibitory Effect of the Compounds of the Present Invention on the Activity of EGFR del19/T790M/C797S and EGFR L858R/T790M/C797S Mutant Kinases
Experimental objective: The objective of this test example is to test the inhibitory activity of the compounds on the activity of EGFR del19/T790M/C797S and EGFR L858R/T790M/C797S mutant kinases.
Experimental method: This experiment used Cisbio's HTRF kinase assay method (Cisbio #62TK0PEB), wherein a catalytic reaction occurred between the substrate polypeptide TK and ATP in the presence of the tyrosine kinase with EGFR del19/T790M/C797S or EGFR L858R/T790M/C797S mutation, the substance was phosphorylated, and the activity of the kinase was characterized by measuring the content of the phosphorylated substrate generated during the reaction, and the half inhibitory concentration IC50 of the compound on the activity of EGFR del19/T790M/C797S or EGFR L858R/T790M/C797S mutant kinase was obtained.
Specific Experimental Operations were as Follows: • the kinase reaction was carried out in a white 384-well plate (Perkin Elmer #6008280), and 1-5 μL of compounds of different concentrations which were diluted with 1% DMSO-containing ddH2O were added; to the positive control wells were added 1-5 μL of 1% DMSO-containing ddH2O, followed by 1-5 μL of 0.5-5 nM 4×EGFR del19/T790M/C797S or EGFR L858R/T790M/C797S mutant kinase solution which was diluted with Dilution buffer (5× kinase buffer, MgCl2 6.65 Mm, MnCl2 1.33 mM, DTT 1.33 mM); to the negative control wells were added 1-5 μL of Dilution buffer; to all the wells were added 1-5 μL of 4 μM 4× substrate TK solution which was prepared with 10× Dilution buffer, and finally added 1-5 μL of 24 μM 4×ATP solution which was diluted with Dilution buffer to start the reaction; after reacting at room temperature for 120 minutes, 10 μL of detection solution (TK antibody 16 nM, XL665 0.5 μM) was added to each well, same was reacted at room temperature in the dark for 20 minutes, and then the […] was detected using a BioTek Synergy H1 microplate reader.
The percent inhibition data for compound-treated wells was calculated according to the positive control wells (DMSO control wells) and negative control wells (no kinase added) on the plate {% inhibition rate=100−[(test compound value−negative control value)]/(positive control value−negative control value)×100}. GraphPad prism was used to fit different concentrations and corresponding percent inhibition rate data to a 4-parameter nonlinear logistic equation to calculate IC50 values.
(In general: TR-FRET usually uses a lanthanide donor and a delayed reading to cut background.)
Regarding `CC(C)c1ccc(N2C[C@H](CS(C)(=O)=O)[C@H]2C)c2cnc(Nc3ccnc(-c4cnn(CCO)c4)n3)cc12` [Example 48, 2-(4-(4-((5-isopropyl-8-((2R,3S)-2-methyl-3-((methanesulfonyl)methyl)azetidin-1-yl)isoquinolin-3-yl)amino)pyrimidin-2-yl)-1H-pyrazol-1-yl)ethan-1-ol], the IC50 was found to be 0.0042 µM.
As to `CC(C)c1ccc(N2C[C@H](CS(C)(=O)=O)[C@H]2C)c2cnc(Nc3ccnc(-c4cnn(CC5(CC#N)CC5)c4)n3)cc12` [Example 18, 2-(1-((4-(4-((5-isopropyl-8-((2R,3S)-2-methyl-3-((methanesulfonyl)methyl)azetidin-1-yl)isoquinolin-3-yl)amino)pyrimidin-2-yl)-1H-pyrazol-1-yl)methyl)cyclopropyl)acetonitrile], the IC50 is 0.0091 µM.
On the same count and under the same terms, as for `CC(C)c1ccc(N2C[C@H](CS(C)(=O)=O)[C@H]2C)c2cnc(Nc3ccnc(-c4cncs4)n3)cc12` [Example 54, 5-isopropyl-8-((2R,3S)-2-methyl-3-((methanesulfonyl)methyl)azetidin-1-yl)-N-(2-(thiazol-5-yl)pyrimidin-4-yl)isoquinolin-3-amine], the figure is 0.0075 µM.

The next assay relates to Ba/F3 EGFR Del19/T790M/C797S cells. Put plainly: Cell proliferation inhibition assay (Cell Titer-Glo), Ba/F3 EGFR Del19/T790M/C797S. The conditions noted are these: 72 hours, read-out: Ba/F3 EGFR Del19_T790M_C797S IC50. Format: cell-based.
Text: as §1, §2, §3, §4, §5
As to `CC(C)c1ccc(N2C[C@H](CS(C)(=O)=O)[C@H]2C)c2cnc(Nc3ccnc(-c4cn(C5CCOCC5)nc4Cl)n3)cc12` [Example 78, N-(2-(3-chloro-1-(tetrahydro-2H-pyran-4-yl)-1H-pyrazol-4-yl)pyrimidin-4-yl)-5-isopropyl-8-((2R,3S)-2-methyl-3-((methanesulfonyl)methyl)azetidin-1-yl)isoquinolin-3-amine], the IC50 came out at 0.012 µM.
